What is called melting point is the temperature of the solid-liquid transition. In general, EC50 refers to the concentration that produces a half-maximal response. The low end stands for a more potent agent, the high end for a less potent agent.

Experimental findings from US20070054902A1, “Isoxazole derivatives as peroxisome proliferator-activated receptors agonists” (SHIONOGI & CO., LTD., priority 2003, published 2007) are described below.

For one series, the target named is T1, CYP2C9 (Homo sapiens, UniProt P11712).
T1 construct: the protein concentration, 0.25 mg/ml (human liver microsomes, 15 pol, Lot. 210296, XenoTech); tissue XenoTech Lot; 210296; host or cells: human liver microsomes (pooled)
The experiment in a line: Test for inhibition of CYP2C9 enzyme (tolbutamide 4-position hydration, human liver microsomes). The series is classed as in vitro ADME. As to conditions: pH 7.4, probe tolbutamide (14C labeled), 5 µM, human liver microsomes 0.25 mg/ml, 5 μM tolbutamide, 37° C., solvent control = 100%, read-out: Residual activity (%) CYP2C9. As for the experimental part: The reaction condition is as below. A substrate, 5 μM Tolbutamide (14C labeled compound); the reaction time, 30 minutes; the reaction temperature, 37° C.; the protein concentration, 0.25 mg/ml (human liver microsomes, 15 pol, Lot. 210296, XenoTech).
To the HEPES Buffer (pH 7.4), is added the protein (human liver microsomes), a drug solution and a substrate with the composition as the above. NADPH, which is a coenzyme of the reaction, is added thereto to start the reaction. After reacting for the fixed hours, 2N hydrochloric acid solution is added thereto and the reaction is stopped by removing protein. The remaining substrate drug and the generating metabolite are extracted with chloroform. The solvent is removed and the residue is redissolved in methanol. This solution was spotted on TLC, developed with chloroform:methanol: acetic acid=90:10:1, contacted on the imaging plate for about 14-20 hours and analyzed by BAS2000. As to the generation activity of the metabolite, Tolbutamide 4-potition hydration body, the activity in case that the solvent dissolving a drug is added to the reaction assay is used as a control (100%). The residual activity (%) in case that the test drug solution is added to the reaction is calculated.

The target in another series is T2, human PPARδ (hPPARδ) (Homo sapiens, UniProt Q03181).
T2 construct: δ:aa 139-C-end; expressed in transfected cells
T2 sequence (Q03181 139-441 limits assumed): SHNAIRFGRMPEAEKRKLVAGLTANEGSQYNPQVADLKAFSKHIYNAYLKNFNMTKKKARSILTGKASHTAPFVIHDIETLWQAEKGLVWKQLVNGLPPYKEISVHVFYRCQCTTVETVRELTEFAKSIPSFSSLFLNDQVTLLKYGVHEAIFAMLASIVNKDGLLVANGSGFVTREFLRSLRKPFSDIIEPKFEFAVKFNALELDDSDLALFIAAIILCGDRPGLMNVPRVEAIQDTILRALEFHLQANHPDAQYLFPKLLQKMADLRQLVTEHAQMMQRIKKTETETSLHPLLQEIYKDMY
The series is described as follows: Test for transcriptional activity of PPARδ (GAL4 chimeric transcription-factor reporter assay in CHO cells). It is filed as cell-based. As to conditions: GAL4-hPPARδ LBD chimeric reporter in CHO cells. The source says:
A chimeric transcription-factor assay, which is commonly used to detect nuclear receptor activity, was employed to measure PPAR transcriptional activity. Specifically, two plasmids, one that expresses the fusion protein of DNA binding domain of yeast transcription factor GAL4 and a ligand binding domain of a receptor, and a reporter plasmid were transiently transfected to CHO cells. The activity of the promoter containing a recognition sequence of GAL4 coded on the reporter plasmid was used as a parameter to estimate the activity of the receptor.
Then, each obtained cDNA-fragment was subcloned into pBIND vector (Promega) to construct a plasmid expressing the fusion protein with DNA binding domain of yeast transcription factor. GAL4. pG51uc vector (Promega) was used as a reporter plasmid.
Cell culturing and transfection: CHO cells were cultured in 10% FBS-αMEM. With a 96-well plate (Costar), CHO cells, that were dispersed with trypsin treatment, 20000 cells per well and the two plasmids obtained by the above procedure, 25 ng per well, were transfected with FuGene Reagent (Roche) by following the instruction of the manufacture.
Measurement of the transcriptional activity: CHO cells 100 μl per well, which were transfected as above, were dispensed into the wells in which a test compound dissolved in DMSO 0.5 μl was spotted in advance. After the cells and a test compound were cultured together for 24 hours in a CO2 incubator, the luciferase activity was measured by adding luciferase substrates, PicaGene LT2.0 (Toyo ink) 100 μl per well. LUMINOUS CT9000D (DIA-IATRON) is used to measure the activity.

[1] abbreviates: 24 hours, concentration showing 1/2 of maximum luciferase activity (Table 166).

T1 sequence (P11712 whole entry): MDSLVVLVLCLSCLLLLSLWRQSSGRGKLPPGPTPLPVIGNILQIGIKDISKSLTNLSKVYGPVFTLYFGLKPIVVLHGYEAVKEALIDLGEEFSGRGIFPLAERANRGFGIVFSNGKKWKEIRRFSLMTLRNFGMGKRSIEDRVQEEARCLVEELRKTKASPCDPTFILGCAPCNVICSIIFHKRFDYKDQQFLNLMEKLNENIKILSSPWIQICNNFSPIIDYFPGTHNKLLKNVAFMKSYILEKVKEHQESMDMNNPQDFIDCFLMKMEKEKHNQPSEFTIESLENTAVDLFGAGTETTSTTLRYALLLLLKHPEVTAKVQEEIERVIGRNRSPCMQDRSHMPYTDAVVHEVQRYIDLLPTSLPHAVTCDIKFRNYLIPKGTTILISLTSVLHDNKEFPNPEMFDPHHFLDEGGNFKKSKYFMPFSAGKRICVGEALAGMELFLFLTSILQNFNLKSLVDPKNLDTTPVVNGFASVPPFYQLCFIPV

`Cc1cc(SCc2cc(-c3ccc(C(F)(F)F)cc3)on2)ccc1/C=C/C(=O)O` [β-2-38] showed a melting point of 179.5 to 181.5 °C. Further, at CYP2C9, the activity at 30 min is 47%. In addition, on human PPARδ (hPPARδ) (24 hours (Table 168)), it took 35 nM to reach a half-maximal effect (EC50). `Cc1c(COc2ccc(C=CC(=O)O)cc2F)noc1-c1ccc(C(F)(F)F)cc1` [β-2-15, 3-{3-Fluoro-4-[4-methyl-5-(4-trifluoromethylphenyl)isoxazole-3-ylmethoxy]phenyl}acrylic acid]: the melting point was in the range of 261 to 262.5 °C. The same measure, in the same setting: next, `COC(=O)COc1ccc(C(=O)CCc2noc(-c3ccc(C(F)(F)F)cc3)c2C)cc1C` [α-6-3-1, (2-Methyl-4-{3-[4-methyl-5-(4-trifluoromethylphenyl)-isoxazole-3-yl]-propionyl}-phenoxy)-acetic acid methyl ester]: 133 to 134 °C. Regarding `Cc1c(CSc2ccc3c(ccn3CC(=O)O)c2)noc1-c1ccc(C(F)(F)F)cc1` [β-4-1, {5-[4-Methyl-5-(4-trifluoromethylphenyl)isoxazole-3-ylmethylsulfanil]indole-1-yl}acetic acid], the melting point lay in the range of 139 to 141 °C. On human PPARδ (hPPARδ) (setting [1]), the response was half-maximal at 16 nM (EC50).

In turn, `COCc1c(COc2ccc(OCC(=O)O)c(C)c2)noc1-c1ccc(C(F)(F)F)cc1` [α-5-1, {4-[4-Methoxymethyl-5-(4-trifluoromethylphenyl)-isoxazole-3-ylmethoxy]-2-methyl-phenoxy}-acetic acid] registered a melting point of 105 to 107 °C. On the same count and under the same terms, next, `Cc1c(COc2ccc3c(ccn3CC(=O)O)c2)noc1-c1ccc(C(F)(F)F)cc1` [β-3-1, {5-[4-Methyl-5-(4 trifluoromethylphenyl)isoxazole-3-ylmethoxy]indole-1-yl}acetic acid]: 159 to 160 °C. In the case of `Cc1c(CSc2ccc(-c3sccc3C(=O)O)cc2)noc1-c1ccc(C(F)(F)F)cc1` [β-5-1, 2-{4-[4-Methyl-5-(4-trifluoromethylphenyl)isoxazole-3-ylmethylsulfanil]phenyl}thiophene-3-carboxylic acid], the melting point lay in the range of 139 to 141 °C. Besides, the EC50 on human PPARδ (hPPARδ) (setting [1]) was 14 nM. The molecule `Cc1cc(SCc2noc(-c3ccc(C(F)(F)F)cc3)c2C)ccc1OCC(=O)O` [β-1-3] returned a melting point of 129 to 131 °C. For the same molecule, the EC50 at human PPARδ (hPPARδ) (setting [1]) was 9.9 nM. The corresponding values for `Cc1cc(SCc2noc(-c3ccc(Cl)cc3)c2C)ccc1OCC(=O)O` [β-1-8] are 157 to 159 °C and 11 nM.

`Cc1cc(SCc2noc(-c3ccc(C(F)(F)F)cc3)c2C)ccc1Cc1noc(=O)[nH]1` [α-7-3-1, 3-[2-methyl-4-[4-methyl-5-(4-trifluoromethylphenyl)isoxazole-3-ylmethylsulfanil]benzil]-4H-[1,2,4]oxadiazole-5-on] had a melting point of 203 to 204.5 °C. Also, the EC50 at human PPARδ (hPPARδ) (setting [1]) worked out at 9.5 nM. In turn, `Cc1cc(C(=O)CCc2noc(-c3ccc(C(F)(F)F)cc3)c2C)ccc1OCC(=O)O` [α-6-4-1, (2-Methyl-4-{3-[4-methyl-5-(4-trifluoromethylphenyl)-isoxazole-3-yl]-propionyl}-phenoxy)-acetic acid] had a melting point of 191 to 194 °C.

Molecule `COCc1c(CSc2ccc(OCC(=O)O)c(C)c2)noc1-c1ccc(C(F)(F)F)cc1` [β-1-15] returned a melting point of 105 to 107 °C. A half-maximal response on human PPARδ (hPPARδ) (setting [1]) (EC50) required 1.5 nM.
